Biological target: human NaV 1.8 (Homo sapiens, UniProt Q9Y5Y9)
Test: E-VIPR assay detecting and measuring NaV inhibition properties
Type: cell-based
Details: HEK cells expressing truncated human NaV 1.8; no human serum; read-out: IC50 in the E-VIPR Assay
Method in brief: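 Membrane potential was followed by coumarin/oxonol FRET during electrical field stimulation of matrigel-seeded HEK cells carrying truncated human NaV1.8 plus KIR2.1. Dosing used 11 points, 3-fold steps, top 300 nM final, 0.625% DMSO, with or without 25% human serum.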

Sequence of human NaV 1.8 (Q9Y5Y9 126-399 limits assumed): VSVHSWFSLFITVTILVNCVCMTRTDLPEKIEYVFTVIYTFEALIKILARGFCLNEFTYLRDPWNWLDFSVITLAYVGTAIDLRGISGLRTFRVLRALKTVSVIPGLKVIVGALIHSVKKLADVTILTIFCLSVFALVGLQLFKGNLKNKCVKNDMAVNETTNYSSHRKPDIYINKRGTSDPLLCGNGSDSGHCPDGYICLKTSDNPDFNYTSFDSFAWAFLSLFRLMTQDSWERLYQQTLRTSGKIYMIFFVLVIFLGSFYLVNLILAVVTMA
Sequence of human NaV 1.8 (Q9Y5Y9 660-890 limits assumed): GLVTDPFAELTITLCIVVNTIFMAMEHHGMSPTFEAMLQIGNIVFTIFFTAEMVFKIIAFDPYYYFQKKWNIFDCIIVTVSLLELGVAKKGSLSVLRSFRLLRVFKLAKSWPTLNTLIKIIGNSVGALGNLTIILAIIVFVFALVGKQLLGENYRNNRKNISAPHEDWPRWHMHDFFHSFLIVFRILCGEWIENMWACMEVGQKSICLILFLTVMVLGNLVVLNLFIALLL
Sequence of human NaV 1.8 (Q9Y5Y9 1148-1722 limits assumed): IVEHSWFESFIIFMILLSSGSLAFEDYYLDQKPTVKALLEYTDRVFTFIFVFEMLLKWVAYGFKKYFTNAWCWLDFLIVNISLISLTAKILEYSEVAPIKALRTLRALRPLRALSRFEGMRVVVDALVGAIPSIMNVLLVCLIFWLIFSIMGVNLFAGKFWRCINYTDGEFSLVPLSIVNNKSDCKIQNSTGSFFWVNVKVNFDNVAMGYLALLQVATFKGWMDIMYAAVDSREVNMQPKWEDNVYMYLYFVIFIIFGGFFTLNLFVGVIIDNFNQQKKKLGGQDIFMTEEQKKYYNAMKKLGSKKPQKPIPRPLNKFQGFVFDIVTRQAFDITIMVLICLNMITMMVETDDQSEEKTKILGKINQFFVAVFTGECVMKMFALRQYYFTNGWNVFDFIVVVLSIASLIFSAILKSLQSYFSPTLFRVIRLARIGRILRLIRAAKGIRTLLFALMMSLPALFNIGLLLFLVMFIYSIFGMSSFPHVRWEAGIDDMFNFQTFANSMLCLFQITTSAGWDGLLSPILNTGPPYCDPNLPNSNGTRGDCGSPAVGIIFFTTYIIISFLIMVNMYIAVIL

Row | IC50 [µM] | Structure (SMILES)
1 | < 0.01 | COc1c([C@H]2[C@H](C(=O)Nc3cc(C4(N)COC4)ncc3F)O[C@@](C)(C(F)(F)F)[C@H]2C)ccc(F)c1F [Compound 341, (2R,3S,4S,5R)-N-(2-(3-aminooxetan-3-yl)-5-fluoropyridin-4-yl)-3-(3,4-difluoro-2-methoxyphenyl)-4,5-dimethyl-5-(trifluoromethyl)-tetrahydrofuran-2-carboxamide]
2 | < 0.01 | CNC1(c2cc(NC(=O)[C@@H]3O[C@@](C)(C(F)(F)F)[C@@H](C)[C@H]3c3ccc(F)c(F)c3OC)ccn2)COC1 [Compound 361, (2R,3S,4S,5R)-3-(3,4-difluoro-2-methoxyphenyl)-4,5-dimethyl-N-(2-(3-(methylamino)oxetan-3-yl)pyridin-4-yl)-5-(trifluoromethyl)tetrahydrofuran-2-carboxamide]
3 | < 0.01 | COc1c([C@H]2[C@H](C(=O)Nc3ccnc(C4(N(C)C)COC4)c3)O[C@@](C)(C(F)(F)F)[C@H]2C)ccc(F)c1F [Compound 362, (2R,3S,4S,5R)-3-(3,4-difluoro-2-methoxyphenyl)-N-(2-(3-(dimethylamino)oxetan-3-yl)pyridin-4-yl)-4,5-dimethyl-5-(trifluoromethyl)tetrahydrofuran-2-carboxamide]
4 | 0.01 to 0.1 | COc1c([C@H]2[C@H](C(=O)Nc3cc(C4(N(C)C)COC4)ncc3F)O[C@@](C)(C(F)(F)F)[C@H]2C)ccc(F)c1F [Compound 363, (2R,3S,4S,5R)-3-(3,4-difluoro-2-methoxyphenyl)-N-(2-(3-(dimethylamino)oxetan-3-yl)-5-fluoropyridin-4-yl)-4,5-dimethyl-5-(trifluoromethyl)tetrahydrofuran-2-carboxamide]
5 | < 0.01 | COC[C@@H](O)Cc1cc(NC(=O)[C@@H]2O[C@@](C)(C(F)(F)F)[C@@H](C)[C@H]2c2ccc(F)c(F)c2OC)ccn1 [Compound 369, (2R,3S,4S,5R)-3-(3,4-difluoro-2-methoxyphenyl)-N-(2-((S)-2-hydroxy-3-methoxypropyl)pyridin-4-yl)-4,5-dimethyl-5-(trifluoromethyl)tetrahydrofuran-2-carboxamide]
6 | 0.01 to 0.1 | COc1c([C@H]2[C@H](C(=O)Nc3c[nH]nn3)O[C@@](C)(C(F)(F)F)[C@H]2C)ccc(F)c1F [Compound 372, (2R,3S,4S,5R)-3-(3,4-difluoro-2-methoxyphenyl)-4,5-dimethyl-N-(1H-1,2,3-triazol-4-yl)-5-(trifluoromethyl)tetrahydrofuran-2-carboxamide]
7 | 0.1 to 1 | COc1c([C@H]2[C@H](C(=O)Nc3ccc(C(=O)NC#N)nc3)O[C@@](C)(C(F)(F)F)[C@H]2C)ccc(F)c1F [Compound 373, N-cyano-5-[[(2R,3S,4S,5R)-3-(3,4-difluoro-2-methoxy-phenyl)-4,5-dimethyl-5-(trifluoromethyl)tetrahydrofuran-2-carbonyl]amino]pyridine-2-carboxamide]
8 | 0.01 to 0.1 | COc1c([C@H]2[C@H](C(=O)Nc3ccc(C(=O)N(C)O)nc3)O[C@@](C)(C(F)(F)F)[C@H]2C)ccc(F)c1F [Compound 374, 5-[[(2R,3S,4S,5R)-3-(3,4-difluoro-2-methoxy-phenyl)-4,5-dimethyl-5-(trifluoromethyl)tetrahydrofuran-2-carbonyl]amino]-N-hydroxy-N-methyl-pyridine-2-carboxamide]
9 | 0.1 to 1 | COc1c([C@H]2[C@H](C(=O)Nc3ccc(C(=O)NS(C)(=O)=O)nc3)O[C@@](C)(C(F)(F)F)[C@H]2C)ccc(F)c1F [Compound 375, 5-[[(2R,3S,4S,5R)-3-(3,4-difluoro-2-methoxy-phenyl)-4,5-dimethyl-5-(trifluoromethyl)tetrahydrofuran-2-carbonyl]amino]-N-methylsulfonyl-pyridine-2-carboxamide]
10 | 0.01 to 0.1 | COc1c([C@H]2[C@H](C(=O)Nc3ccc(C(=O)N(C)S(C)(=O)=O)nc3)O[C@@](C)(C(F)(F)F)[C@H]2C)ccc(F)c1F [Compound 376, 5-[[(2R,3S,4S,5R)-3-(3,4-difluoro-2-methoxy-phenyl)-4,5-dimethyl-5-(trifluoromethyl)tetrahydrofuran-2-carbonyl]amino]-N-methyl-N-methylsulfonyl-pyridine-2-carboxamide]
11 | < 0.01 | COc1c([C@H]2[C@H](C(=O)Nc3ccnc(C(O)CN(C)C)c3)O[C@@](C)(C(F)(F)F)[C@H]2C)ccc(F)c1F (stereo partly drawn) [Compound 378, (2R,3S,4S,5R)-3-(3,4-difluoro-2-methoxy-phenyl)-N-[2-[2-(dimethylamino)-1-hydroxy-ethyl]-4-pyridyl]-4,5-dimethyl-5-(trifluoromethyl)tetrahydrofuran-2-carboxamide]
12 | < 0.01 | COc1c([C@H]2[C@H](C(=O)Nc3ccnc(N4CCN(C)CC4=O)c3)O[C@@](C)(C(F)(F)F)[C@H]2C)ccc(F)c1F [Compound 379, (2R,3S,4S,5R)-3-(3,4-difluoro-2-methoxyphenyl)-4,5-dimethyl-N-(2-(4-methyl-2-oxopiperazin-1-yl)pyridin-4-yl)-5-(trifluoromethyl)tetrahydrofuran-2-carboxamide]
13 | 0.01 to 0.1 | COc1c([C@H]2[C@H](C(=O)Nc3cncc(S(=O)(=O)N4CCN(C)CC4)c3)O[C@@](C)(C(F)(F)F)[C@H]2C)ccc(F)c1F [Compound 380, (2R,3S,4S,5R)-3-(3,4-difluoro-2-methoxyphenyl)-4,5-dimethyl-N-(5-((4-methylpiperazin-1-yl)sulfonyl)pyridin-3-yl)-5-(trifluoromethyl)tetrahydrofuran-2-carboxamide]
14 | 0.01 to 0.1 | COc1c([C@H]2[C@H](C(=O)Nc3ccnc(CO)n3)O[C@@](C)(C(F)(F)F)[C@H]2C)ccc(F)c1F [Compound 381, (2R,3S,4S,5R)-3-(3,4-difluoro-2-methoxyphenyl)-N-(2-(hydroxymethyl)pyrimidin-4-yl)-4,5-dimethyl-5-(trifluoromethyl)tetrahydrofuran-2-carboxamide]
15 | 0.1 to 1 | COc1c([C@H]2[C@H](C(=O)Nc3cncc(CO)n3)O[C@@](C)(C(F)(F)F)[C@H]2C)ccc(F)c1F [Compound 382, (2R,3S,4S,5R)-3-(3,4-difluoro-2-methoxyphenyl)-N-(6-(hydroxymethyl)pyrazin-2-yl)-4,5-dimethyl-5-(trifluoromethyl)tetrahydrofuran-2-carboxamide]
16 | 0.01 to 0.1 | COc1c([C@H]2[C@H](C(=O)Nc3cncc(CO)c3)O[C@@](C)(C(F)(F)F)[C@H]2C)ccc(F)c1F [Compound 383, (2R,3S,4S,5R)-3-(3,4-difluoro-2-methoxyphenyl)-N-(5-(hydroxymethyl)pyridin-3-yl)-4,5-dimethyl-5-(trifluoromethyl)tetrahydrofuran-2-carboxamide]
17 | < 0.01 | COc1c([C@H]2[C@H](C(=O)Nc3cnnc(N4C(=O)CN(C)C[C@H]4C)c3)O[C@@](C)(C(F)(F)F)[C@H]2C)ccc(F)c1F [Compound 384, (2R,3S,4S,5R)-3-(3,4-difluoro-2-methoxyphenyl)-N-(6-((R)-2,4-dimethyl-6-oxopiperazin-1-yl)pyridazin-4-yl)-4,5-dimethyl-5-(trifluoromethyl)tetrahydrofuran-2-carboxamide]
18 | < 0.01 | COc1c([C@H]2[C@H](C(=O)Nc3ccnc(CCO)c3)O[C@@](C)(C(F)(F)F)[C@H]2C)ccc(F)c1F [Compound 385, (2R,3S,4S,5R)-3-(3,4-difluoro-2-methoxyphenyl)-N-(2-(2-hydroxyethyl)pyridin-4-yl)-4,5-dimethyl-5-(trifluoromethyl)tetrahydrofuran-2-carboxamide]
19 | < 0.01 | COc1c([C@H]2[C@H](C(=O)Nc3ccnc(CN4CCC[C@H]4CO)c3)O[C@@](C)(C(F)(F)F)[C@H]2C)ccc(F)c1F [Compound 386, (2R,3S,4S,5R)-3-(3,4-difluoro-2-methoxyphenyl)-N-(2-(((S)-2-(hydroxymethyl)pyrrolidin-1-yl)methyl)pyridin-4-yl)-4,5-dimethyl-5-(trifluoromethyl)tetrahydrofuran-2-carboxamide]
20 | 0.01 to 0.1 | CNc1cc(NC(=O)[C@@H]2O[C@@](C)(C(F)(F)F)[C@@H](C)[C@H]2c2ccc(F)c(F)c2OC)ccn1 [Compound 387, (2R,3S,4S,5R)-3-(3,4-difluoro-2-methoxyphenyl)-4,5-dimethyl-N-(2-(methylamino)pyridin-4-yl)-5-(trifluoromethyl)tetrahydrofuran-2-carboxamide]
21 | 0.01 to 0.1 | COc1c([C@H]2[C@H](C(=O)Nc3cnc4nncn4c3)O[C@@](C)(C(F)(F)F)[C@H]2C)ccc(F)c1F [Compound 388, (2R,3S,4S,5R)-N-([1,2,4]triazolo[4,3-a]pyrimidin-6-yl)-3-(3,4-difluoro-2-methoxyphenyl)-4,5-dimethyl-5-(trifluoromethyl)tetrahydrofuran-2-carboxamide]
22 | 0.01 to 0.1 | COc1c([C@H]2[C@H](C(=O)Nc3cc(C(C)(C)O)ncn3)O[C@@](C)(C(F)(F)F)[C@H]2C)ccc(F)c1F [Compound 389, (2R,3S,4S,5R)-3-(3,4-difluoro-2-methoxy-phenyl)-N-[6-(1-hydroxy-1-methyl-ethyl)pyrimidin-4-yl]-4,5-dimethyl-5-(trifluoromethyl)tetrahydrofuran-2-carboxamide]
23 | 0.01 to 0.1 | COc1c([C@H]2[C@H](C(=O)Nc3cnc(C(C)(C)O)nc3)O[C@@](C)(C(F)(F)F)[C@H]2C)ccc(F)c1F [Compound 390, (2R,3S,4S,5R)-3-(3,4-difluoro-2-methoxyphenyl)-N-(2-(2-hydroxypropan-2-yl)pyrimidin-5-yl)-4,5-dimethyl-5-(trifluoromethyl)tetrahydrofuran-2-carboxamide]
24 | 0.1 to 1 | COc1c([C@H]2[C@H](C(=O)Nc3ccc(N4CCN(C)CC4=O)nc3)O[C@@](C)(C(F)(F)F)[C@H]2C)ccc(F)c1F [Compound 391, (2R,3S,4S,5R)-3-(3,4-difluoro-2-methoxyphenyl)-4,5-dimethyl-N-(6-(4-methyl-2-oxopiperazin-1-yl)pyridin-3-yl)-5-(trifluoromethyl)-tetrahydrofuran-2-carboxamide]
